# Read-outs that look alike come from different tables or passages of the source.
# How the values were obtained:
# Assay type in all cases: cell-based
# [1] = system: S. aureus IVES 1983 (meth. resistant); experiment: MIC, agar dilution; conditions: S. aureus IVES 1983; Table IA; unit assumed
# [2] = system: S. haemolyticus AVAH 88-3; experiment: MIC, agar dilution; conditions: S. hemolyticus AVHAH 88-3; Table IA; unit assumed
# [3] = system: S. aureus ATCC 29213 (Sensitive); experiment: MIC, agar dilution; conditions: S. aureus ATCC 29213; Table IA; unit assumed
# E. coli J3272 TetC = experiment: MIC, agar dilution (Table IA); conditions: unit assumed
# [4] = system: S. aureus UBMS 90-2 (tetM); experiment: MIC, agar dilution; conditions: S. aureus UBMS 90-2 TetM; Table IA; unit assumed
# [5] = system: S. aureus IVES 2943 (meth. resistant); experiment: MIC, agar dilution; conditions: S. aureus IVES 2943; Table IA; unit assumed
# S. aureus NEMC 8769/89-4 = experiment: MIC, agar dilution (Table IA); conditions: unit assumed
# E. coli MC4100 Tet sens. = experiment: MIC, agar dilution (Table IA); conditions: unit assumed
# S. aureus ROSE (MP) = experiment: MIC, agar dilution (Table IA); conditions: unit assumed
# E. coli UBMS 90-5 = experiment: MIC, agar dilution (Table IA); conditions: unit assumed
# [6] = system: S. aureus Smith (Sensitive); experiment: MIC, agar dilution; conditions: S. aureus SMITH (MP); Table IA; unit assumed
# E. coli ATCC 25922 = experiment: MIC, agar dilution; conditions: E. coli ATCC 25922; Table IA; unit assumed
# E. coli J2175 = experiment: MIC, agar dilution (Table IA); conditions: unit assumed
# S. mariescens FDOR 8733 = experiment: MIC, agar dilution (Table IA); conditions: unit assumed
# E. coli PRP1 TetA = experiment: MIC, agar dilution (Table IA); conditions: unit assumed
# [7] = system: X. maltophilia NEMC 87210; experiment: MIC, agar dilution (Table IA); conditions: unit assumed
# E. coli BAJ9003 = experiment: MIC, agar dilution (Table IA)
# E. faecalis ATCC 29212 = experiment: MIC, agar dilution; conditions: E. faecalis ATCC 29212; Table IA; unit assumed
# E. coli UBMS 89-1 (tetM) = experiment: MIC, agar dilution; conditions: E. coli UBMS 89-1 TetM; Table IA; unit assumed
# [8] = system: Ps. acruginosa ATCC 27853; experiment: MIC, agar dilution (Table IA); conditions: unit assumed
# [9] = system: S. aureus UBMS 90-3 (Sensitive); experiment: MIC, agar dilution; conditions: S. aureus UBMS 90-3; Table IA; unit assumed
# [10] = system: E. coli UBMS 89-2 (Sensitive); experiment: MIC, agar dilution; conditions: E. coli UBMS 89-2 Tet Sens.; Table IA; unit assumed
# [11] = system: S. aureus UBMS 88-5 (tetM); experiment: MIC, agar dilution; conditions: S. aureus UBMS 88-5 TetM; Table IA; unit assumed
# E. coli MC4100 TetB = experiment: MIC, agar dilution (Table IA); conditions: unit assumed
# E. coli J3272 TetD = experiment: MIC, agar dilution (Table IA); conditions: unit assumed
# E. coli UBMS 88-1 (tetB) = experiment: MIC, agar dilution; conditions: E. coli UBMS 88-1 TetB; Table IA; unit assumed
# E. coli #311 (MP) = experiment: MIC, agar dilution (Table IA); conditions: unit assumed
# [12] = system: S. aureus UBMS 90-1 (tetM); experiment: MIC, agar dilution; conditions: S. aureus UBMS 90-1 TetM; Table IA; unit assumed
# E. coli UBMS 90-4 (tetM) = experiment: MIC, agar dilution; conditions: E. coli UBMS 90-4 TetM; Table IA; unit assumed
# [13] = system: S. aureus UBMS 88-7 (tetK); experiment: MIC, agar dilution; conditions: S. aureus UBMS 88-7 TetK; Table IA; unit assumed
# [14] = system: S. aureus UBMS 88-4 (Sensitive); experiment: MIC, agar dilution; conditions: S. aureus UBMS 88-4; Table IA; unit assumed
# E. faecalis 12201 = experiment: MIC, agar dilution; conditions: Enterococcus 12201; Table IA; unit assumed
SMILES,Antibacterial activity (MIC) [1] [µg/mL],Antibacterial activity (MIC) [2] [µg/mL],Antibacterial activity (MIC) [3] [µg/mL],Antibacterial activity (MIC) (E. coli J3272 TetC) [µg/mL],Antibacterial activity (MIC) [4] [µg/mL],Antibacterial activity (MIC) [5] [µg/mL],Antibacterial activity (MIC) (S. aureus NEMC 8769/89-4) [µg/mL],Antibacterial activity (MIC) (E. coli MC4100 Tet sens.) [µg/mL],Antibacterial activity (MIC) (S. aureus ROSE (MP)) [µg/mL],Antibacterial activity (MIC) (E. coli UBMS 90-5) [µg/mL],Antibacterial activity (MIC) [6] [µg/mL],Antibacterial activity (MIC) (E. coli ATCC 25922) [µg/mL],Antibacterial activity (MIC) (E. coli J2175) [µg/mL],Antibacterial activity (MIC) (S. mariescens FDOR 8733) [µg/mL],Antibacterial activity (MIC) (E. coli PRP1 TetA) [µg/mL],Antibacterial activity (MIC) [7] [µg/mL],Antibacterial activity (MIC) (E. faecalis ATCC 29212) [µg/mL],Antibacterial activity (MIC) (E. coli UBMS 89-1 (tetM)) [µg/mL],Antibacterial activity (MIC) [8] [µg/mL],Antibacterial activity (MIC) [9] [µg/mL],also measured
"CN(C)CCCC(=O)Nc1cc(N(C)C)c2c(c1O)C(=O)C1=C(O)[C@]3(O)C(=O)C(C(N)=O)=C(O)[C@@H](N(C)C)C3CC1C2.Cl.Cl (stereo partly drawn) [ZZ, [4S-(4alpha,12aalpha)]-4,7-Bis(dimethylamino)-9-[[4-(dimethylamino)-1-oxobutyl]amino]-1,4,4a,5,5a,6,11,12a-octahydro-3,10,12,12a-tetrahydroxy-1,11-dioxo-2-naphthacenecarboxamide dihydrochloride]",> 32,8,2,32,4,> 32,1,2,> 32,16,2,8,16,> 32,> 32,32,4,32,> 32,2,Antibacterial activity (MIC) (E. coli BAJ9003; unit assumed): 1 µg/mL; Antibacterial activity (MIC) [10]: 16 µg/mL; Antibacterial activity (MIC) [11]: 8 µg/mL; Antibacterial activity (MIC) (E. coli MC4100 TetB): > 32 µg/mL; Antibacterial activity (MIC) (E. coli J3272 TetD): 4 µg/mL; Antibacterial activity (MIC) (E. coli UBMS 88-1 (tetB)): > 32 µg/mL; Antibacterial activity (MIC) (E. coli #311 (MP)): 16 µg/mL; Antibacterial activity (MIC) [12]: 8 µg/mL; Antibacterial activity (MIC) (E. coli UBMS 90-4 (tetM)): 16 µg/mL; Antibacterial activity (MIC) [13]: 16 µg/mL; Antibacterial activity (MIC) [14]: 2 µg/mL; Antibacterial activity (MIC) (E. faecalis 12201): 8 µg/mL
"CN(C)CC(=O)Nc1cc(N(C)C)c2c(c1O)C(=O)C1=C(O)[C@]3(O)C(=O)C(C(=O)NCN4CCCC4)=C(O)[C@@H](N(C)C)C3CC1C2 (stereo partly drawn) [FFF, [4S-(4alpha,12aalpha)]-4,7-Bis(dimethylamino)-9-[[(dimethylamino)acetyl]amino]-1,4,4a,5,5a,6,11,12a-octahydro-3,10,12,12a-tetrahydroxy-1,11-dioxo-N-(1-pyrrolidinylmethyl)-2-naphthacenecarboxamide]",2,0.25,0.12,1,0.12,2,0.25,0.06,2,0.25,0.12,0.12,0.25,4,2,0.25,0.06,0.12,8,0.12,Antibacterial activity (MIC) (E. coli BAJ9003): ≧0.015; Antibacterial activity (MIC) [10]: 0.25 µg/mL; Antibacterial activity (MIC) [11]: 0.12 µg/mL; Antibacterial activity (MIC) (E. coli MC4100 TetB): 0.25 µg/mL; Antibacterial activity (MIC) (E. coli J3272 TetD): 0.12 µg/mL; Antibacterial activity (MIC) (E. coli UBMS 88-1 (tetB)): 0.25 µg/mL; Antibacterial activity (MIC) (E. coli #311 (MP)): 0.25 µg/mL; Antibacterial activity (MIC) [12]: 0.12 µg/mL; Antibacterial activity (MIC) (E. coli UBMS 90-4 (tetM)): 0.12 µg/mL; Antibacterial activity (MIC) [13]: 1 µg/mL; Antibacterial activity (MIC) [14]: 0.12 µg/mL; Antibacterial activity (MIC) (E. faecalis 12201): 0.12 µg/mL
"CCCCN(C)CC(=O)Nc1cc(N(C)C)c2c(c1O)C(=O)C1=C(O)C3(O)C(=O)C(C(N)=O)=C(O)C(N(C)C)C3CC1C2.Cl.Cl (stereo not drawn) [CCC, [4S-(4alpha,12aalpha)]-9-[[(Butylmethylamino)acetyl]amino]-4,7-Bis(dimethylamino)-1,4,4a,5,5a,6,11,12a-octahydro-3,10-12,12a-tetrahydroxy-1,11-dioxo-2-naphthacenecarboxamide dihydrochloride]",1,0.5,0.5,1,0.25,1,0.12,0.25,2,2,0.5,1,2,16,2,0.25,0.12,0.25,> 32,0.25,Antibacterial activity (MIC) (E. coli BAJ9003; unit assumed): 0.12 µg/mL; Antibacterial activity (MIC) [10]: 2 µg/mL; Antibacterial activity (MIC) [11]: 0.5 µg/mL; Antibacterial activity (MIC) (E. coli MC4100 TetB): 2 µg/mL; Antibacterial activity (MIC) (E. coli J3272 TetD): 0.5 µg/mL; Antibacterial activity (MIC) (E. coli UBMS 88-1 (tetB)): 1 µg/mL; Antibacterial activity (MIC) (E. coli #311 (MP)): 1 µg/mL; Antibacterial activity (MIC) [12]: 1 µg/mL; Antibacterial activity (MIC) (E. coli UBMS 90-4 (tetM)): 1 µg/mL; Antibacterial activity (MIC) [13]: 1 µg/mL; Antibacterial activity (MIC) [14]: 0.5 µg/mL; Antibacterial activity (MIC) (E. faecalis 12201): 0.25 µg/mL
